Results: patent US20070179060A1, “6-(Poly-substituted aryl)-4-aminopicolinates and their use as herbicides” (priority 2006, published 2007)

What was measured:
[1] = test system: lambsquarter (Chenopodium album); assay: Preemergence herbicidal activity; format: in vivo; conditions: pre-emergent, 140 g ai/ha, after 20-22 days; for pest or weed control at 140 g/ha: Chenopodium album, pre-emergence, 480 h, read-out: % Control CHEAL
Procedure, shortened: (§1)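 Seeds sown in 70:30 loam (pH about 8.1, about 1.5% organic matter) and sand mix, then sprayed preemergence at 187 L/ha with a track sprayer; controls received solvent blank. Pots kept in greenhouse, about 15 h photoperiod, about 23-29° C. day and 22-28° C. night, top-irrigated.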

[2] = test system: redroot pigweed (Amaranthus retroflexus); assay: Preemergence herbicidal activity; format: in vivo; conditions: pre-emergent, 140 g ai/ha, after 20-22 days; for pest or weed control at 140 g/ha: Amaranthus retroflexus, pre-emergence, 480 h, read-out: % Control AMARE
Procedure, shortened: as §1

[3] = test system: velvetleaf (Abutilon theophrasti); assay: Preemergence herbicidal activity; format: in vivo; conditions: pre-emergent, 140 g ai/ha, after 20-22 days; for pest or weed control at 140 g/ha: Abutilon theophrasti, pre-emergence, 480 h, read-out: % Control ABUTH
Procedure, shortened: as §1

[4] = test system: lambsquarter (Chenopodium album); assay: Postemergence herbicidal activity; format: in vivo; conditions: post-emergent, 140 g ai/ha, after 14 days; for pest or weed control at 140 g/ha: Chenopodium album, post-emergence, 336 h, read-out: % Control CHEAL
Procedure, shortened: (§2)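 Plants grown 7-21 days in greenhouse (about 15 h photoperiod, 23-29° C day, 22-28° C night) to first or second true leaf stage. Compounds in acetone/water/isopropanol/DMSO carrier with crop oil concentrate and Triton X-155 sprayed overhead at 187 L/ha; controls received solvent blank. Plants sub-irrigated afterwards; dose responses analysed by probit analysis.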

[5] = test system: redroot pigweed (Amaranthus retroflexus); assay: Postemergence herbicidal activity; format: in vivo; conditions: post-emergent, 140 g ai/ha, after 14 days; for pest or weed control at 140 g/ha: Amaranthus retroflexus, post-emergence, 336 h, read-out: % Control AMARE
Procedure, shortened: as §2

[6] = test system: velvetleaf (Abutilon theophrasti); assay: Postemergence herbicidal activity; format: in vivo; conditions: post-emergent, 140 g ai/ha, after 14 days; for pest or weed control at 140 g/ha: Abutilon theophrasti, post-emergence, 336 h, read-out: % Control ABUTH
Procedure, shortened: as §2

barley (Hordeum vulare) = assay: Postemergence herbicidal activity in cereal crops; format: in vivo; conditions: crop, post-emergent, after 20-22 days; for pest or weed control at 17.5 g/ha: 17.5 g ai/ha
Procedure: (§3) When required to ensure good germination and healthy plants, a fungicide treatment and/or other chemical or physical treatment was applied. The plants were grown for 7-36 days in a greenhouse with an approximate 14 hour photoperiod which was maintained at about 18° C. during the day and 17° C. during the night. Nutrients and water were added on a regular basis and supplemental lighting was provided with overhead metal halide 1000-Watt lamps as necessary. The plants were employed for testing when they reached the second or third true leaf stage. […] The concentrated stock solutions obtained were diluted with 16 mL of an aqueous mixture containing acetone, water, isopropyl alcohol, DMSO, Agri-dex crop oil concentrate, and Triton® X-77 surfactant in a 64.7:26.0:6.7:2.0:0.7:0.01 v/v ratio to obtain spray solutions containing the highest application rates. […] Compound requirements are based upon a 12 mL application volume at a rate of 187 L/ha. Formulated compounds were applied to the plant material with an overhead Mandel track sprayer equipped with a […] nozzles calibrated to deliver 187 L/ha over an application area of 0.503 square meters at a spray height of 18 inches (43 cm) above average plant canopy height. Control plants were sprayed in the same manner with the blank. The treated plants and control plants were placed in a greenhouse as described above and watered by sub-irrigation to prevent wash-off of the test compounds.

Papaver rhoeas = assay: Postemergence herbicidal activity in cereal crops; format: in vivo; conditions: post-emergent, after 20-22 days; for pest or weed control at 17.5 g/ha: 17.5 g ai/ha
Procedure: as §3

[7] = test system: wheat (Triticum aestivum); assay: Postemergence herbicidal activity in cereal crops; format: in vivo; conditions: crop, post-emergent, after 20-22 days; for plant injury at 17.5 g/ha: 17.5 g ai/ha
Procedure: as §3

Veronica persica = assay: Postemergence herbicidal activity in cereal crops; format: in vivo; conditions: post-emergent, after 20-22 days; for pest or weed control at 17.5 g/ha: 17.5 g ai/ha
Procedure: as §3

Galium aparine = assay: Postemergence herbicidal activity in cereal crops; format: in vivo; conditions: post-emergent, after 20-22 days; for pest or weed control at 17.5 g/ha: 17.5 g ai/ha
Procedure: as §3

Lamium purpureum = assay: Postemergence herbicidal activity in cereal crops; format: in vivo; conditions: post-emergent, after 20-22 days; for pest or weed control at 17.5 g/ha: 17.5 g ai/ha
Procedure: as §3

[8] = Hordeum, post-emergence, 480 h, 70 g ai/ha, read-out: % Control HORVS
[9] = Papaver rhoeas, post-emergence, 480 h, 70 g ai/ha, read-out: % Control PAPRH
[10] = Triticum aestivum, post-emergence, 480 h, 70 g ai/ha, read-out: % Control TRZAS
[11] = Veronica persica, post-emergence, 480 h, 70 g ai/ha, read-out: % Control VERPE
[12] = Galium aparine, post-emergence, 480 h, 70 g ai/ha, read-out: % Control GALAP
[13] = Lamium purpureum, post-emergence, 480 h, 70 g ai/ha, read-out: % Control LAMPU
[14] = Hordeum, post-emergence, 480 h, read-out: % Control HORVS
[15] = Papaver rhoeas, post-emergence, 480 h, read-out: % Control PAPRH
[16] = Triticum aestivum, post-emergence, 480 h, read-out: % Control TRZAS
[17] = Veronica persica, post-emergence, 480 h, read-out: % Control VERPE
[18] = Galium aparine, post-emergence, 480 h, read-out: % Control GALAP
[19] = Lamium purpureum, post-emergence, 480 h, read-out: % Control LAMPU

| Structure (SMILES) | pest or weed control at 140 g/ha [4] [%] | pest or weed control at 140 g/ha [5] [%] | pest or weed control at 140 g/ha [6] [%] | pest or weed control at 70 g/ha (barley (Hordeum vulare); [8]) [%] | pest or weed control at 70 g/ha (Papaver rhoeas; [9]) [%] | plant injury at 70 g/ha [7, 10] [%] | pest or weed control at 70 g/ha (Veronica persica; [11]) [%] | pest or weed control at 70 g/ha (Galium aparine; [12]) [%] | pest or weed control at 70 g/ha (Lamium purpureum; [13]) [%] | melting point [°C] | pest or weed control at 17.5 g/ha (barley (Hordeum vulare); [14]) [%] | pest or weed control at 17.5 g/ha (Papaver rhoeas; [15]) [%] | plant injury at 17.5 g/ha [7, 16] [%] | pest or weed control at 17.5 g/ha (Veronica persica; [17]) [%] | pest or weed control at 17.5 g/ha (Galium aparine; [18]) [%] | pest or weed control at 17.5 g/ha (Lamium purpureum; [19]) [%] | further results |
| --- | --- | --- | --- | --- | --- | --- | --- | --- | --- | --- | --- | --- | --- | --- | --- | --- | --- |
| COC(=O)c1nc(-c2ccc(Cl)c(SC)c2F)cc(N)c1Cl [Compound 1] |  |  |  |  |  |  |  |  |  |  |  |  |  |  |  |  | % Control CHEAL [1]: 90%; % Control AMARE [2]: 100%; % Control ABUTH [3]: 80%; % Control CHEAL [4]: 100%; % Control AMARE [5]: 100%; % Control ABUTH [6]: 85%; % Control HORVS (barley (Hordeum vulare); 35 g ai/ha): 10%; % Control PAPRH (Papaver rhoeas; 35 g ai/ha): 80%; % Control TRZAS ([7]; 35 g ai/ha): 5%; % Control VERPE (Veronica persica; 35 g ai/ha): 50%; % Control GALAP (Galium aparine; 35 g ai/ha): 85%; % Control LAMPU (Lamium purpureum; 35 g ai/ha): 80% |
| COC(=O)c1nc(-c2cc(OC)c(Cl)cc2F)cc(N)c1Cl [Compound 43, 4-Amino-3-chloro-6-(4-chloro-2-fluoro-5-methoxyphenyl)pyridine-2-carboxylic acid methyl ester] | 100 | 100 | 100 | 5 | 85 | 0 | 30 | 65 | 99 |  |  |  |  |  |  |  | pest or weed control at 140 g/ha [1]: 100%; pest or weed control at 140 g/ha [2]: 100%; pest or weed control at 140 g/ha [3]: 98% |
| COC(=O)c1nc(-c2ccc(C(F)(F)F)c(OC)c2F)cc(N)c1Cl [Compound 45, 4-Amino-3-chloro-6-(2-fluoro-3-methoxy-4-trifluoromethylphenyl)pyridine-2-carboxylic acid methyl ester] | 95 | 80 | 100 |  |  |  |  |  |  | 144 to 146 | 0 | 90 | 0 | 80 | 90 | 100 |  |
| COC(=O)c1nc(-c2c(F)cc(Cl)c(N(C)C)c2F)cc(N)c1Cl [Compound 50, 4-Amino-3-chloro-6-[4-chloro-3-(dimethylamino)-2,6-difluorophenyl]pyridine-2-carboxylic acid, methyl ester] | 100 | 100 | 100 | 0 | 95 | 0 | 60 | 95 | 100 |  |  |  |  |  |  |  | pest or weed control at 140 g/ha [1]: 100%; pest or weed control at 140 g/ha [2]: 100%; pest or weed control at 140 g/ha [3]: 100% |
| COC(=O)c1nc(-c2c(F)cc(F)c(OC)c2F)cc(N)c1Cl [Compound 56, 4-Amino-3-chloro-6-(2,4,6-trifluoro-3-methyoxyphenyl)pyridine-2-carboxylic acid, methyl ester] |  |  |  |  |  |  |  |  |  |  |  |  |  |  |  |  | % Control CHEAL [4]: 100%; % Control AMARE [5]: 100%; % Control ABUTH [6]: 100%; % Control HORVS (barley (Hordeum vulare); 70 g ai/ha): 10%; % Control PAPRH (Papaver rhoeas; 70 g ai/ha): 100%; % Control TRZAS ([7]; 70 g ai/ha): 0%; % Control VERPE (Veronica persica; 70 g ai/ha): 95%; % Control GALAP (Galium aparine; 70 g ai/ha): 100%; % Control LAMPU (Lamium purpureum; 70 g ai/ha): 99% |
| COC(=O)c1nc(-c2ccc(Cl)c(C(F)C(F)(F)F)c2F)cc(N)c1Cl (stereo not drawn) [Compound 65, 4-Amino-3-chloro-6-[4-chloro-2-fluoro-3-(1,2,2,2-tetrafluoroethyl)phenyl)-pyridine-2-carboxylic acid, methyl ester] | 90 | 100 | 95 |  |  |  |  |  |  |  |  |  |  |  |  |  | pest or weed control at 35 g/ha (barley (Hordeum vulare); Hordeum, post-emergence, 480 h, 35 g ai/ha, read-out: % Control HORVS): 5%; pest or weed control at 35 g/ha (Papaver rhoeas; Papaver rhoeas, post-emergence, 480 h, 35 g ai/ha, read-out: % Control PAPRH): 90%; plant injury at 35 g/ha ([7]; Triticum aestivum, post-emergence, 480 h, 35 g ai/ha, read-out: % Control TRZAS): 15%; pest or weed control at 35 g/ha (Veronica persica; Veronica persica, post-emergence, 480 h, 35 g ai/ha, read-out: % Control VERPE): 40%; pest or weed control at 35 g/ha (Galium aparine; Galium aparine, post-emergence, 480 h, 35 g ai/ha, read-out: % Control GALAP): 85%; pest or weed control at 35 g/ha (Lamium purpureum; Lamium purpureum, post-emergence, 480 h, 35 g ai/ha, read-out: % Control LAMPU): 95% |
| COC(=O)c1nc(-c2ccc(C(F)F)c(OC)c2F)cc(N)c1Cl [Compound 71, 4-Amino-3-chloro-6-(4-difluoromethyl-2-fluoro-3-methoxyphenyl)pyridine-2-carboxylic acid, methyl ester] | 85 | 80 | 100 |  |  |  |  |  |  | 145 to 147 | 0 | 95 | 0 | 50 | 95 | 95 |  |
| COC(=O)c1nc(-c2cc(OC)c(F)cc2F)cc(N)c1Cl [Compound 73, 4-Amino-3-chloro-6-(2,4-difluoro-5-methoxyphenyl)pyridine-2-carboxylic acid, methyl ester] | 100 | 100 | 90 | 0 | 95 | 0 | 60 | 95 | 99 | 128 to 130 |  |  |  |  |  |  |  |
| CCCCOCCOC(=O)c1nc(-c2ccc(Cl)c(OC)c2F)cc(N)c1Cl [Compound 87, 4-Amino-3-chloro-6-(4-chloro-2-fluoro-3-methoxyphenyl)pyridine-2-carboxylic acid, 2-butoxy-ethyl ester] | 100 | 100 | 100 |  |  |  |  |  |  |  | 0 | 100 | 0 | 50 | 100 | 100 |  |
